SMILES strings stand for the structures.

The record followed here is ChEMBL document CHEMBL3351528, “Targeting dopamine D3 and serotonin 5-HT1A and 5-HT2A receptors for developing effective antipsychotics: synthesis, biological characterization, and behavioral studies” (J Med Chem, 2014).

For data set [1], the system named is Mus musculus. Nature of the data set: Antipsychotic-like activity in orally dosed NMRI mouse assessed as reduction in MK801-induced locomotor activity dosed 15 to 30 mins before administration of MK801 measured for 60 mins. It counts as functional. As to conditions: po, read-out: MED.
Data set [2] concerns Mus musculus. Nature of the data set: Toxicity in mouse assessed as induction of memory impairment by measuring […] to enter dark compartment at 60 mg/kg, po administered 30 mins before training measured 24 hrs after acquisition trail by passive avoidance test. It counts as organism-based. Set-up: dose 60 mg/kg, route oral. As to conditions: in vivo.
In data set [3] the test system is Heart. Nature of the data set: Cardiotoxicity in Langendorff-perfused Sprague-Dawley rat heart assessed as effect on coronary perfusion pressure up to 10 uM. It counts as toxicity, tissue-based.
The subject of data set [4] is Mus musculus. Nature of the data set: Effect on startle response in mouse at 3 to 30 mg/kg, po. It counts as ADME, organism-based. Set-up: dose 3-30 mg/kg, route oral. As to conditions: in vivo.
For data set [5], the target named is T1, 5-hydroxytryptamine receptor 1A (Homo sapiens, UniProt P08908).
T1 sequence (P08908 whole entry): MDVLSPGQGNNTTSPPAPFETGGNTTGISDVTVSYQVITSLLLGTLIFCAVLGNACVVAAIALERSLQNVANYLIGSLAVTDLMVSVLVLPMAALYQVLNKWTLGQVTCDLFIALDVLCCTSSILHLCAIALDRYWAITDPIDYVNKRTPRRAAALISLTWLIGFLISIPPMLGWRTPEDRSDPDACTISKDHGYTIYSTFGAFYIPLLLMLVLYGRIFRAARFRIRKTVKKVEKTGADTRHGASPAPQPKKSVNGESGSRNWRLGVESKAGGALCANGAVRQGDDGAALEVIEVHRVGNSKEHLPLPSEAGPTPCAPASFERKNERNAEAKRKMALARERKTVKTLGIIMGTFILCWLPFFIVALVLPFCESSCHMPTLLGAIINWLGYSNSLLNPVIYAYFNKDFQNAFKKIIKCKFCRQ
Kind of data set: Agonist activity at human 5HT1A receptor (unknown origin) expressed in CHO cells by [35S]GTPgammaS binding assay. In kind it is functional, cell-based. (GTPγS resists hydrolysis and so accumulates on activated G proteins.)

Data set [6] concerns Mus musculus. Nature of the data set: Effect on spontaneous locomotor activity in mouse at 30 mg/kg, ip. As to conditions: in vivo. Set-up: dose 30 mg/kg, route intraperitoneal. It counts as ADME, organism-based.
Data set [7] concerns Mus musculus. Kind of data set: Effect on spontaneous exploratory locomotor activity in orally dosed NMRI mouse measured for 30 mins with activity counts each 5 mins. It counts as ADME, organism-based. As to conditions: in vivo, po, 0.5 h.
The target in data set [8] is T2, D(3) dopamine receptor (Homo sapiens, UniProt P35462). Kind of data set: Antagonist activity at human dopamine D3 receptor expressed in CHO-K1 cells assessed as reduction in dopamine-induced response by [35S]GTPgammaS binding assay. It counts as functional, cell-based.
The target in data set [9] is hERG (KCNH2) (Homo sapiens, UniProt Q12809). Kind of data set: Inhibition of human ERG at 10 uM by whole cell based electrophysiology assay.
Data set [10] deals with T2, D(3) dopamine receptor.
Description: Binding affinity to dopamine D3 receptor (unknown origin)
For data set [11], the target named is 5-hydroxytryptamine receptor 2A (Homo sapiens, UniProt P28223).
Description: Binding affinity to 5HT2A receptor (unknown origin)
Data set [12] deals with Mus musculus. Nature of the data set: Antipsychotic-like activity in orally dosed NMRI mouse assessed as reduction in methamphetamine-induced locomotor activity dosed 15 to 30 mins before administration of methamphetamine measured for 60 mins. It counts as functional. As to conditions: po, read-out: MED.
For data set [13], the target named is D(2) dopamine receptor (Homo sapiens, UniProt P14416).
Description: Binding affinity to dopamine D2 receptor (unknown origin)
Data set [14] addresses T3, 5-hydroxytryptamine receptor 2C (Homo sapiens, UniProt P28335).
T3 sequence (P28335 whole entry): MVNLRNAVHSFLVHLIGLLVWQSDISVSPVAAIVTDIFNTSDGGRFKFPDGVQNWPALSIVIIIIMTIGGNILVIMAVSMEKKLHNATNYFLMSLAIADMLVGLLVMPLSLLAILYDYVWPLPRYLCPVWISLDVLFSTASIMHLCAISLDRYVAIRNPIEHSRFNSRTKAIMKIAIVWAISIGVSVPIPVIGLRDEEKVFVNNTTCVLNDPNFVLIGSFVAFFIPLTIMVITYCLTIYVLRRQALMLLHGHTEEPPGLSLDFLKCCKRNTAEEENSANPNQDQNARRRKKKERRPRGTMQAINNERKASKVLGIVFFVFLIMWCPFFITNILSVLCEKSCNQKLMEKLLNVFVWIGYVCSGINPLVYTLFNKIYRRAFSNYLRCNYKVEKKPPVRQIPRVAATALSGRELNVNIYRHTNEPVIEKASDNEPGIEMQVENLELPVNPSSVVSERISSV
Description: Binding affinity to 5HT2C receptor (unknown origin)

Data set [15] relates to Mus musculus. Kind of data set: Toxicity in mouse assessed as induction of memory impairment by measuring […] to enter dark compartment at 60 mg/kg, po administered 30 mins before training by passive avoidance test. In kind it is organism-based. Set-up: dose 60 mg/kg, route oral. As to conditions: in vivo, 0.5 h.
Data set [16] deals with T1, 5-hydroxytryptamine receptor 1A.
Description: Binding affinity to 5HT1A receptor (unknown origin)
In data set [17] the test system is Mus musculus. Nature of the data set: Reduction in startle response in mouse at 30 mg/kg, po dosed 30 mins before testing. In kind it is ADME, organism-based. Set-up: dose 30 mg/kg, route oral. As to conditions: in vivo, 0.5 h.
The test system of data set [18] is Heart. Nature of the data set: Cardiotoxicity in Langendorff-perfused Sprague-Dawley rat heart assessed as effect on left ventricle pressure up to 10 uM. It counts as toxicity, tissue-based.
Data set [19] has as its target Voltage-gated inwardly rectifying potassium channel KCNH2 (Homo sapiens, UniProt Q12809). Kind of data set: Inhibition of human ERG by whole cell based electrophysiology assay.
Data set [20] has as its system Mus musculus. Kind of data set: Toxicity in NMRI mouse assessed as induction of catalepsy up to 90 mg/kg, sc dosed 30 mins before test. In kind it is organism-based. Set-up: dose 90 mg/kg, route subcutaneous. As to conditions: in vivo, 0.5 h.

T2 sequence (P35462 whole entry): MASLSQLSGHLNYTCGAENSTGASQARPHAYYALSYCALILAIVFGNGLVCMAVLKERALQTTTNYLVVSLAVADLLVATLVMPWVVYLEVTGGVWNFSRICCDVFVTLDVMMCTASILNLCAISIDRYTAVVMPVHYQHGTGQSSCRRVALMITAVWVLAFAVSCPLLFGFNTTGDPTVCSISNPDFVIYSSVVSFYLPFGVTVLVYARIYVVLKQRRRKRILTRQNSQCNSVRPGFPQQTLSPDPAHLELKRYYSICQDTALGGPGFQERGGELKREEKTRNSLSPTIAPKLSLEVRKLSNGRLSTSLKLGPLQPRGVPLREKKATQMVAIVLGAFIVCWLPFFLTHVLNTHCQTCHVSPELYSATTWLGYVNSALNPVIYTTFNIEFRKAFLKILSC
Sequence of Voltage-gated inwardly rectifying potassium channel KCNH2 (Q12809 whole entry): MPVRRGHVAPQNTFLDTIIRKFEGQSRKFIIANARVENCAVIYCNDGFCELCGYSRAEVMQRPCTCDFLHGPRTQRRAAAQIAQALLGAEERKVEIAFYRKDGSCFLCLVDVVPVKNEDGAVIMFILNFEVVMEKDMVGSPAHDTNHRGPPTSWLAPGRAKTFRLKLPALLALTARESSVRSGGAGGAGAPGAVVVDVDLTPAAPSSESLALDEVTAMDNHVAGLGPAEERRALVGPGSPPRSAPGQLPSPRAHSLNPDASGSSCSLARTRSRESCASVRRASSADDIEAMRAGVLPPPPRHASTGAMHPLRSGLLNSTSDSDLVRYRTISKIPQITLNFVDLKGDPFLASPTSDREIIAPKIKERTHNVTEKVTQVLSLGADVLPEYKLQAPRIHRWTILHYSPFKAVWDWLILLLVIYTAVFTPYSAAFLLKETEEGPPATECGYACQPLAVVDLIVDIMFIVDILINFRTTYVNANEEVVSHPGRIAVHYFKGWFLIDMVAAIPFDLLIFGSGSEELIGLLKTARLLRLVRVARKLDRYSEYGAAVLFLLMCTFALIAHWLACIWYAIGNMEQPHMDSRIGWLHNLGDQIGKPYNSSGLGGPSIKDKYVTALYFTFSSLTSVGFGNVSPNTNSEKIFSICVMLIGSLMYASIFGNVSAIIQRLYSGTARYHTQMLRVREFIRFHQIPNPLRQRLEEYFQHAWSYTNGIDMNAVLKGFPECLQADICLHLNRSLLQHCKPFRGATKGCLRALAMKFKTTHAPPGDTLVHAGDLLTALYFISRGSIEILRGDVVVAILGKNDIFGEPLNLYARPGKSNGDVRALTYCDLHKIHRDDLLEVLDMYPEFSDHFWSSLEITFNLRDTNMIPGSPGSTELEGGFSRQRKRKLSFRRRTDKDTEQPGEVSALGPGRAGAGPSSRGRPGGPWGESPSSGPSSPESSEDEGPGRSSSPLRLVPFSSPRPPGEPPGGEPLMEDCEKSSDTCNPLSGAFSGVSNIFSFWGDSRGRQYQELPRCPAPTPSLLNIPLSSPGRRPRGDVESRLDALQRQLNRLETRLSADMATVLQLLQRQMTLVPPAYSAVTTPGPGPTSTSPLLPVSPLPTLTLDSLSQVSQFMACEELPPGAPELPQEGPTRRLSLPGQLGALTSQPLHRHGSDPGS
Sequence of hERG (KCNH2) (Q12809 whole entry): as above
Sequence of D(2) dopamine receptor (P14416 whole entry): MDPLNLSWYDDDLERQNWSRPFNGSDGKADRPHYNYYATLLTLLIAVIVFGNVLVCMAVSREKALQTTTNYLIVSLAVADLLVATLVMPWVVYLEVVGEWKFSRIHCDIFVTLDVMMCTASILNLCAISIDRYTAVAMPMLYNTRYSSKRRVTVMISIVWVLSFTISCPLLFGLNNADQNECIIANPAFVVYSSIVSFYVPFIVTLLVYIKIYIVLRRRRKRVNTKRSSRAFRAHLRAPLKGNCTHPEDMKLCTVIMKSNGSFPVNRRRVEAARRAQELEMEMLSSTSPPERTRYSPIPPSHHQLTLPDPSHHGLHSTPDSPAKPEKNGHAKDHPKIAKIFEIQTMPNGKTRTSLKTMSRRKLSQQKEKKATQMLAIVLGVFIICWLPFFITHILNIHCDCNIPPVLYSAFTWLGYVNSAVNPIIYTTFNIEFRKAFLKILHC
Sequence of 5-hydroxytryptamine receptor 2A (P28223 whole entry): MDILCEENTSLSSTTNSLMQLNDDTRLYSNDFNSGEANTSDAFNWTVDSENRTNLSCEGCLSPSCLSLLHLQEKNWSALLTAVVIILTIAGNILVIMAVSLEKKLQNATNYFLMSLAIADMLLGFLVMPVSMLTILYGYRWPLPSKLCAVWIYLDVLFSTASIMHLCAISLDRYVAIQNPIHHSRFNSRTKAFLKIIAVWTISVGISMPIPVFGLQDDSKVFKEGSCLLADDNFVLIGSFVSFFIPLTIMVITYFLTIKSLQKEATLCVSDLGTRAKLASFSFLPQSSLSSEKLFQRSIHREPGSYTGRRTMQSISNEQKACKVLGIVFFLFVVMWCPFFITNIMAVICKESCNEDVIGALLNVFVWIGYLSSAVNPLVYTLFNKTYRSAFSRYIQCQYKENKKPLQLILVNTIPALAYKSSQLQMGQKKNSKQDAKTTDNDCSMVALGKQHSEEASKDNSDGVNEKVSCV

With `O=C(NCCCCN1CCN(c2ccccc2)CC1)c1ccc2ncccc2c1`, the minimal effective dose in data set [1] is 10 mg/kg; in data set [12], more than 30 mg/kg. Further, the Activity entry in data set [2] is listed as “Non-toxic”; in [3], “Non-toxic”; in data set [4] it was “Non-toxic”; in data set [6], “Toxic”; in data set [15], “Toxic”; in [17] it was “Toxic”. Also, the Activity entry in [18] and in data set [20] was “Non-toxic” in each case. Moreover, in data set [5], the EC50 is 1800 nM. Besides, the MED result in data set [7] was “<= 3 mg kg-1”. Also, the IC50 worked out at 258 nM in data set [8] and 10000 nM in [19]. Besides, testing at 10 µM in [9] gave an inhibition of 47%. The Ki was 0.6 nM in data set [10]; 66 nM in data set [11]; more than 1000 nM in [13]; more than 1000 nM in data set [14]; 99 nM in data set [16].

The term EC50 denotes the concentration that produces a half-maximal response. A lower EC50 goes with higher potency in that assay. As usually defined, the IC50 is the concentration that inhibits the measured activity by half. As usually defined, the inhibition is the drop in the measured response relative to a control, in per cent. For orientation: Ki means a dissociation constant, usually derived from enzyme kinetics or from competition with a known ligand.
